From US20210277003A1, “OGA INHIBITOR COMPOUNDS” (Janssen Pharmaceutica NV, priority 2018, published 2021) come the findings set out here.

Experiment [1] concerns OGA in HEK293 cells inducible for P301L mutant human Tau (isoform 2N4R). The experiment is described as follows: OGA cellular assay: immunocytochemical detection of O-GlcNAcylated proteins (CTD110.6 antibody). In kind it is cell-based. The conditions noted are these: Homo sapiens, HEK293, 6 h, 6 hours incubation; for Emax: maximum = Thiamet G 200 uM; for EC50: read-out: Cellular hOGA, pEC50 (converted). Put shortly: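 Cells seeded 2 days ahead in low-glucose assay medium and exposed to compounds for 6 h at 0.2% DMSO, then PFA-fixed and immunostained. Signal is 488 nm intensity from imaging (9 fields/well), with Hoechst nuclei counts as a toxicity check. IC50 from non-linear regression, with 200 uM Thiamet G per plate as maximum inhibition.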

In experiment [2] the target is T1, recombinant human Meningioma Expressed Antigen 5 (MGEA5), also referred to as O-GlcNAcase (OGA) (Homo sapiens, UniProt O60502).
T1 construct: Full length OGA enzyme was purchased at OnGene (cat #TP322411); purchased OnGene (so in the source)
T1 sequence (O60502 1-916): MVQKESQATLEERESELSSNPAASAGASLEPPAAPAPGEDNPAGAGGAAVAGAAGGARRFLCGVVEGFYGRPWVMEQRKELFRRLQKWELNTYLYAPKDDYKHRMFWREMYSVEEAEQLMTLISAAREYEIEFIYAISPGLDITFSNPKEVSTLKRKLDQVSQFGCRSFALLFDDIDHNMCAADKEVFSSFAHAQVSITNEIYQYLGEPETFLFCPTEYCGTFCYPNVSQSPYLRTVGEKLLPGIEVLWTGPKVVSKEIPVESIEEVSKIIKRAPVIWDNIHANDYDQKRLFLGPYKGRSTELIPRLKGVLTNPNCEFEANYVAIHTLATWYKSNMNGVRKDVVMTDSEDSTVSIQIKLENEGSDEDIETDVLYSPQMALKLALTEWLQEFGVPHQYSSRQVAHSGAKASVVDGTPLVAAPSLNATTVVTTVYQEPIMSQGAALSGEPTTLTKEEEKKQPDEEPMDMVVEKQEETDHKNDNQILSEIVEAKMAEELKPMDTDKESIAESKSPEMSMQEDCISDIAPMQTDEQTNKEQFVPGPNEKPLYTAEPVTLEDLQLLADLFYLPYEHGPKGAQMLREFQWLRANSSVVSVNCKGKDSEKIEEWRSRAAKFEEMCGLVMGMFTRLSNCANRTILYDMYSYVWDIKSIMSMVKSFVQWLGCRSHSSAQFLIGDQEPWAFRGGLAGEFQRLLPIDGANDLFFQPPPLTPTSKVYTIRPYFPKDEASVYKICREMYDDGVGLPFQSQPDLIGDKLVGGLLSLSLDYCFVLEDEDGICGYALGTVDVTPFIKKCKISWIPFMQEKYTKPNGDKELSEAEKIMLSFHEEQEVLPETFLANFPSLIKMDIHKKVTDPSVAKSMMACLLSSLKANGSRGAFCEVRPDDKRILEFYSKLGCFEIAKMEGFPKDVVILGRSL
Kind of experiment: OGA biochemical assay: inhibition of hydrolysis of fluorescein mono-ß-D-N-Acetyl-Glucosamine (FM-GlcNAc), fluorescence readout. Conditions: FM-GlcNAc substrate; for Emax: read-out: Enzymatic Emax (%); for IC50: read-out: Enzymatic hOGA, pIC50 (converted). The method in brief: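 Full-length recombinant human OGA (2 nM) was pre-incubated with compound for 60 min, then reacted with 100 uM FM-GlcNAc for 6 h at room temperature in 200 mM citrate/phosphate pH 7.2 with 0.005% Tween-20. Reactions were stopped with pH 11.0 carbonate and fluorescein read at 485/538 nm. IC50 and Hill coefficient came from curve fitting.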

Usually Emax stands for the size of the effect at its maximum, as opposed to the concentration needed. For the compound `Cc1cc(Cn2ccc3c(Nc4c(C)ccnc4C)nccc32)no1` [Compound 133], in experiment [1], the Emax was determined as 76.1% and the EC50 is 87.1 nM. Besides, in experiment [2], the “Enzymatic hOGA; pIC50” value was 8.16 and the Emax is 101%.
In the same order, the values of `Cc1ccnc(C(F)F)c1Nc1nccc2c1ccn2CC(C)(F)F` [Compound 134] are 77.5%, 81.3 nM, 8.28 and 99.9%.
`Cc1cc(C)c(Nc2nccc3c2ccn3CC(C)(F)F)c(C)c1` [Compound 135]: in experiment [1], the Emax turned out to be 82.2% and the EC50 was 9.33 nM. In experiment [2], the “Enzymatic hOGA; pIC50” value came out at 8.64 and the Emax was determined as 98.8%.
For `Fc1cc(Cl)c(Nc2nccc3c2ccn3CC2CCCO2)c(Cl)c1` (centres unmarked) [Compound 136] the same measures were 74.9%, 240 nM, 7.64 and 101%.
Take `Cc1ccnc(C)c1Nc1nccc2c1ccn2CC1CCCO1` (centres unmarked) [Compound 137]: in experiment [1], the Emax came to 60.4% and the EC50 was 513 nM. Moreover, in experiment [2], the “Enzymatic hOGA; pIC50” value was determined as 7.14 and the maximum response (Emax) was 99.1%.
On to `Cc1ccnc(C(C)C)c1Nc1nccc2c1ccn2CC1CCCO1` (centres unmarked) [Compound 138], for which, in experiment [1], the Emax worked out at 66.8% and the EC50 was 74.1 nM. In experiment [2], the “Enzymatic hOGA; pIC50” value was 8.07 and the Emax was 103%.
In the same order, the values of `Fc1cc(Cl)c(Nc2nccc3c2ccn3CC2CCOC2)c(Cl)c1` (centres unmarked) [Compound 139] are 69.7%, 398 nM, 7.8 and 104%.
In the same order, the values of `Cc1ccnc(C)c1Nc1nccc2c1ccn2CC1CCOC1` (centres unmarked) [Compound 140] are 63.9%, 603 nM, 7.08 and 103%.
In the same order, the values of `Cc1ccnc(C(C)C)c1Nc1nccc2c1ccn2CC1CCOC1` (centres unmarked) [Compound 141] are 74.7%, 107 nM, 7.76 and 103%.
As to `Cc1ccnc(C)c1Nc1nccc2c1ccn2CC(C)O` (centres unmarked) [Compound 144], in experiment [1], the Emax amounted to 79% and the EC50 was 182 nM. For the same compound, in experiment [2], the “Enzymatic hOGA; pIC50” value is 7.25 and the Emax was 100%.
For the compound `CC[C@@H](O)Cn1ccc2c(Nc3c(C)cc(F)cc3C)nccc21` [Compound 145a], in experiment [1], the maximal effect (Emax) came to 81.2% and the EC50 is 56.2 nM. Moreover, in experiment [2], the “Enzymatic hOGA; pIC50” value was found to be 7.79 and the Emax was determined as 100%.
Regarding `CC[C@H](O)Cn1ccc2c(Nc3c(C)cc(F)cc3C)nccc21` [Compound 145b], in experiment [1], the Emax stood at 85.7% and the EC50 is 26.9 nM. In addition, in experiment [2], the “Enzymatic hOGA; pIC50” value came to 8.46 and the Emax was 102%.
For `Cc1cc(OC(F)F)nc(C)c1Nc1nccc2c1ccn2CC1CC(F)(F)C1` [Compound 146] the same measures were 76.3%, 45.7 nM, 7.56 and 101%.
`Cc1ccnc(C(C)C)c1Nc1nccc2c1ccn2CC(C)(F)F` [Compound 147]: in experiment [1], the Emax came to 90.9% and the EC50 is around 4.47 nM. Besides, in experiment [2], the “Enzymatic hOGA; pIC50” value is 8.81 and the Emax worked out at 98.6%.
Regarding `Cc1cc(F)cc(C(C)C)c1Nc1nccc2c1ccn2CC(C)(F)F` [Compound 148], in experiment [1], the Emax is 87.5% and the EC50 is around 4.79 nM. In experiment [2], the “Enzymatic hOGA; pIC50” value is reported as 8.89 and the maximum response (Emax) stood at 102%.
On to `Cc1cc(OC(F)F)nc(C)c1Nc1nccc2c1ccn2CC(C)(F)F` [Compound 149], for which, in experiment [1], the Emax came out at 96.4% and the EC50 was 10.7 nM. In addition, in experiment [2], the “Enzymatic hOGA; pIC50” value worked out at 8.58 and the Emax is 101%.
With `Cc1cc(Cl)cc(C)c1Nc1nccc2c1ccn2CC(C)(F)F` [Compound 150], in experiment [1], the Emax was 82.1% and the EC50 is 5.37 nM. Further, in experiment [2], the “Enzymatic hOGA; pIC50” value was 8.57 and the Emax worked out at 101%.
For `Cc1cc(F)cc(Cl)c1Nc1nccc2c1ccn2CC(C)(F)F` [Compound 151] the same measures were 102%, 10.2 nM, 8.61 and 100%.
For `Cc1cc(F)c(F)c(C)c1Nc1nccc2c1ccn2CC(C)(F)F` [Compound 153] the same measures were 74.1%, 20.4 nM, 8.52 and 102%.
In the case of `Cc1cc(-c2cnn(C)c2)cc(C)c1Nc1nccc2c1ccn2CC(C)(F)F` [Compound 154], in experiment [1], the maximal response (Emax) stood at 86.2% and the EC50 is 3.47 nM. In experiment [2], the “Enzymatic hOGA; pIC50” value is 8.67 and the Emax came out at 101%.
In the same order, the values of `Cc1cc(F)cc(F)c1Nc1nccc2c1ccn2CC(C)(F)F` [Compound 155] are 73.3%, 50.1 nM, 8 and 101%.
As to `Cc1cc(C)c(Nc2nccc3c2ccn3CC(C)(F)F)c(OC(F)F)n1` [Compound 156], in experiment [1], the Emax stood at 70.9% and the EC50 was 45.7 nM. In addition, in experiment [2], the “Enzymatic hOGA; pIC50” value amounted to 8.07 and the Emax came to 102%.
Regarding `Cc1cc(Cn2ccc3c(Nc4c(Cl)cc(F)cc4Cl)nccc32)no1` [Compound 158], in experiment [1], the Emax was found to be 71% and the EC50 is 63.1 nM. In addition, in experiment [2], the “Enzymatic hOGA; pIC50” value turned out to be 8.58 and the Emax was 101%.
Turning to `Clc1cccc(Cl)c1Nc1nccc2c1ccn2CC1CCO1` (centres unmarked) [Compound 159], in experiment [1], the Emax is 84% and the EC50 was 20.4 nM. Moreover, in experiment [2], the “Enzymatic hOGA; pIC50” value is 8.87 and the Emax came out at 104%.
With `Cc1ccnc(C(C)C)c1Nc1nccc2c1ccn2CC1CCO1` (centres unmarked) [Compound 160], in experiment [1], the Emax turned out to be 96% and the EC50 was 8.13 nM. Also, in experiment [2], the “Enzymatic hOGA; pIC50” value came out at 8.67 and the Emax amounted to 103%.
For `Cc1cc(C(F)(F)F)cc(C(C)C)c1Nc1nccc2c1ccn2CC1CCO1` (centres unmarked) [Compound 161] the same measures were 88.8%, 6.76 nM, 8.58 and 104%.
In the same order, the values of `Cc1cc(F)cc(C(C)C)c1Nc1nccc2c1ccn2CC1CCO1` (centres unmarked) [Compound 163] are 90.3%, 4.17 nM, 8.63 and 104%.
Regarding `N#Cc1ccc(-n2ccc3c(Nc4c(Cl)cccc4Cl)nccc32)nc1` [Compound 166], in experiment [1], the Emax is 44.1% and the EC50 was 1000 nM. In experiment [2], the Emax amounted to 101% and the IC50 was 47.9 nM.
As to `Cn1cnc(-n2ccc3c(Nc4c(Cl)cccc4Cl)nccc32)c1` [Compound 167], in experiment [1], the Emax came to 81.9% and the EC50 is around 224 nM. In experiment [2], the Emax came out at 102% and the IC50 is 17 nM.
For `Clc1cccc(Cl)c1Nc1nccc2c1ccn2Cc1ncco1` [Compound 169] the same measures were 67.5%, 550 nM, 104% and 12 nM.
`Cc1cc(F)cc(C)c1Nc1nccc2c1ccn2CC1CC(F)(F)C1` [Compound 170]: in experiment [1], the Emax stood at 78.6% and the EC50 is 83.2 nM. Moreover, in experiment [2], the Emax was determined as 100% and the IC50 was 27.5 nM.
In the same order, the values of `Cc1cc(F)cc(C(C)C)c1Nc1nccc2c1ccn2CC1CC(F)(F)C1` [Compound 171] are 73.8%, 38.9 nM, 103% and 6.03 nM.
